Measured values taken from PMC7933930, “Development of a small molecule that corrects misfolding and increases secretion of Z α1‐antitrypsin” (EMBO Molecular Medicine, 2021).

Legend:
[1] = tested on: Z α1‐antitrypsin in CHO‐K1 Tet‐On cells; assay: Pulse‐chase of Z α1‐antitrypsin in CHO‐K1 Tet‐On cells; type: cell-based; details: 10 μM GSK716
Description: Figure 2 GSK716 inhibits polymerisation of Z α1‐antitrypsin in cell models of disease • A GSK716 was added to CHO‐TET‐ON‐Z‐A1AT cells (Ordóñez et al, 2013) with simultaneous induction of Z α1‐antitrypsin expression using doxycycline, and polymer load was quantified with the 2C1 monoclonal antibody that is specific to pathological polymers of α1‐antitrypsin (Miranda et al, 2010). […] Data were normalised to vehicle and a control compound from the GSK716 series at saturating concentration. […] It induced an approximately threefold increase in secreted levels of Z α1‐antitrypsin compared with vehicle control. This was apparent even after polymers had been allowed to form. Scale bar: 100 µm. Data presented as mean ± SD, n = 8 (secretion) and n = 6 (polymer inhibition). • E CHO tetracycline‐inducible cells expressing Z α1‐antitrypsin were induced with 0.5 μg/ml doxycycline for 48 h and treated with 10 μM GSK716. […] For every time point, NP‐40‐soluble and NP‐40‐insoluble fractions were separated and immunoprecipitated with the 2C1 mAb and resolved by 4–12% w/v SDS–PAGE and α1‐antitrypsin detected by immunoblotting. […] Cell viability was measured by Cell Counting Kit‐8. […] Samples were resolved by 4–12% w/v acrylamide SDS–PAGE and detected by autoradiography. • H The graphs show the effect of GSK716 on intracellular and extracellular Z α1‐antitrypsin (mean ± SEM, n = 2). […]

M and Z α1‐antitrypsin = assay: Heat‐induced oligomerisation, constant temperature, non‐denaturing PAGE; type: biochemical, human; details: constant‐temperature experiment, 4 h, 48 to 65°C
Description: Polymerisation of α1‐antitrypsin involves transition through a transient intermediate state known as M*, that is readily populated by the Z variant (Dafforn et al, 1999; Knaupp et al, 2010). The M* conformational ensemble appears to be a distinct species between the native state conformation and that of the final polymer. One of the hallmarks of M* is its recognition by environment‐sensitive fluorescent reporter dyes. Thermal shift assays that make use of the dye SYPRO Orange report the stability of the protein native state against heat‐induced unfolding. […] Native state stability can also be probed by equilibrium unfolding using chemical denaturants, where a peak in bis‐ANS fluorescence corresponds with a maximally populated unfolding intermediate (James & Bottomley, 1998). […] The association of GSK716 induced a marked quenching and blue‐shift of the α1‐antitrypsin intrinsic tryptophan fluorescence spectrum (Fig 4D, inset). The rate of change in fluorescence during association of 10µM GSK716 was proportional to the propensity of α1‐antitrypsin mutants to form polymers in vivo: inert (M), mild (S), moderate (Baghdad) and severe (Z) α1‐antitrypsin (Fig 4D, top and bottom). […]

CCC[C@@H](NC(=O)c1cccc2c1CC(=O)N2)[C@@H](O)c1cccc(F)c1C [GSK716]
intracellular polymers, clearance and secretion in pulse‐chase [1]: abolished intracellular polymers
temperature of oligomer generation (M and Z α1‐antitrypsin): oligomers were generated at higher temperatures in the presence of the compound than in its absence
